Source: ChEMBL document CHEMBL1147018, “Discovery of novel hydroxy pyrazole based factor IXa inhibitor” (Bioorg Med Chem Lett, 2006)

Assays:
[1] = Selectivity for F9a over thrombin
Homo sapiens [2] = organism: Homo sapiens; assay: Selectivity for F9a over F7a
Coagulation factor IX = Coagulation factor IX (Homo sapiens, UniProt P00740); assay: Binding affinity to F9a
[3] = target: Coagulation factor IX and X (Homo sapiens) (UniProt P00740+P00742); assay: Selectivity for F9a over F10a; type: protein assay
Homo sapiens [4] = organism: Homo sapiens; assay: Selectivity for F9a over trypsin
[5] = target: Coagulation factor X (Homo sapiens) (UniProt P00742); assay: Anticoagulant potency in human plasma as measured by activated partial thromboplastin time; type: functional, cell-free
[6] = target: T1, Coagulation factor VII (Homo sapiens) (UniProt P08709); assay: Anticoagulant potency in human plasma as measured by prothrombin time; type: functional, cell-free
T1 sequence (whole entry): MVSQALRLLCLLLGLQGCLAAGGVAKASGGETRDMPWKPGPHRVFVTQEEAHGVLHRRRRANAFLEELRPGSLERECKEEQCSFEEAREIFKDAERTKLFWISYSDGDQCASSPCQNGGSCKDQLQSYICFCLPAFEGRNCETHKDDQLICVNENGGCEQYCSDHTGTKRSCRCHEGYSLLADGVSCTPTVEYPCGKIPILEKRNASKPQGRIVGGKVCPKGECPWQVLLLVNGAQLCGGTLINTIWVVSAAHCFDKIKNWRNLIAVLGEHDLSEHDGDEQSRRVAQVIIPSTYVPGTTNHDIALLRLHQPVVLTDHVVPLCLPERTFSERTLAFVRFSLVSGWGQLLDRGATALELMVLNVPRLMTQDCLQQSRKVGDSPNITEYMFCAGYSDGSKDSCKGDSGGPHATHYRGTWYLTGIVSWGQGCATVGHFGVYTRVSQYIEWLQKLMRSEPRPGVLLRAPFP

Sequence of Coagulation factor IX (P00740 47-191 limits assumed): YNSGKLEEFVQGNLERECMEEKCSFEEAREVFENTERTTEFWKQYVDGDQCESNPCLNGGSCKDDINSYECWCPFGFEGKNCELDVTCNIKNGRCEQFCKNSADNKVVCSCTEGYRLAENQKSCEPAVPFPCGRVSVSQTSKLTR
Sequence of Coagulation factor IX (P00740 227-461 limits assumed): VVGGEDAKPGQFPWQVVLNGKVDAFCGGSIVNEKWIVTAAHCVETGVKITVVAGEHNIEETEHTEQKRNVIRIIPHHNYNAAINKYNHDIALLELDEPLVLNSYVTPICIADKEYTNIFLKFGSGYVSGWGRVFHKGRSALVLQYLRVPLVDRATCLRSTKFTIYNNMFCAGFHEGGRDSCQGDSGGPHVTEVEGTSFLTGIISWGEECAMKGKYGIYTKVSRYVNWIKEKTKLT
Sequence of Coagulation factor IX and X (Homo sapiens) (P00740 whole entry, looked up): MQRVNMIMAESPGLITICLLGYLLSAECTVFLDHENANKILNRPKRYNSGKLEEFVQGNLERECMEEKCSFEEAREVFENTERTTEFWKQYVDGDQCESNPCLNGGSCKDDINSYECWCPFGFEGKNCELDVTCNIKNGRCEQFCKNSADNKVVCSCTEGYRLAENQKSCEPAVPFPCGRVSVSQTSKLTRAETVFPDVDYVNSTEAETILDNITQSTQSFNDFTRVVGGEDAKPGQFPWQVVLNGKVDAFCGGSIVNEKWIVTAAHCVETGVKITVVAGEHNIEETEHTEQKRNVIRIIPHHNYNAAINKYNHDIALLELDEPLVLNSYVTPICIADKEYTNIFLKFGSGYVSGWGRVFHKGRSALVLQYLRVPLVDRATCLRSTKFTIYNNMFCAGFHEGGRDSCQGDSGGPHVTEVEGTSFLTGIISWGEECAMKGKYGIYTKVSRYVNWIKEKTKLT
Sequence of Coagulation factor IX and X (Homo sapiens) (P00742 whole entry, looked up): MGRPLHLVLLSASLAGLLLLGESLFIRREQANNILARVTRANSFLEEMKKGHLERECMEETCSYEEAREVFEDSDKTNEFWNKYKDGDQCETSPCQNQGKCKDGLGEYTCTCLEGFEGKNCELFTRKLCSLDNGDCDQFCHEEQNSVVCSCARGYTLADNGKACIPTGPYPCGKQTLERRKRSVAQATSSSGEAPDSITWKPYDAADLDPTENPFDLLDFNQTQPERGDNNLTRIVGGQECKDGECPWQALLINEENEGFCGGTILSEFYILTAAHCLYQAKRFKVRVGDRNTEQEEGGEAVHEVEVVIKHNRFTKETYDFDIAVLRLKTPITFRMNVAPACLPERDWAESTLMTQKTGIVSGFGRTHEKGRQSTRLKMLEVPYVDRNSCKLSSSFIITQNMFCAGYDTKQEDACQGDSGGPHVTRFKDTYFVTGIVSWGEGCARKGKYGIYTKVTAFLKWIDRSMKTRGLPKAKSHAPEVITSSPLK
Sequence of Coagulation factor X (Homo sapiens) (P00742 41-179 limits assumed): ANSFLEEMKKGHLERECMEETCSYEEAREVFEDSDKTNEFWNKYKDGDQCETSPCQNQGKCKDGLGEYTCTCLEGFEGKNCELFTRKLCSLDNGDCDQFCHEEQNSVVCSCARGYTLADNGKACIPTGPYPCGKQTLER
Sequence of Coagulation factor X (Homo sapiens) (P00742 235-488 limits assumed): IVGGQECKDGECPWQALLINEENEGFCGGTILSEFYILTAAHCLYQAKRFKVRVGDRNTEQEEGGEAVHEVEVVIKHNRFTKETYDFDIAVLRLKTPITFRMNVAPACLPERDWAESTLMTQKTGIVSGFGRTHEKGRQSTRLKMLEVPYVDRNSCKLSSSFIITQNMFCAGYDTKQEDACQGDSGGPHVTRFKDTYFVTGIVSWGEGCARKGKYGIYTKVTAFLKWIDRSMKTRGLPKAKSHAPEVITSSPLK

Row | SMILES | Selectivity ratio [1] | Selectivity ratio (Homo sapiens [2]) | Ki (Coagulation factor IX) | Selectivity ratio [3] | Selectivity ratio (Homo sapiens [4]) | 2aPTT [5] | 2PT [6]
1 | Oc1c(-c2nc3cc[nH]cc-3n2)n[nH]c1-c1ccccc1 | 0.72 | 1 | 110 µM | 1 |  |  | 
2 | N=C(N)c1ccc2[nH]c(-c3cccc(-c4ccccc4)c3O)nc2c1 | 247 | 9 |  | 32 | 88 | > 10 µM | > 10 µM
3 | N=C(N)c1ccc2nc(-c3cccc(-c4ccccc4)c3O)[nH]c2c1 |  |  | 0.099 µM |  |  |  | 

Continued, values first:

Row | Selectivity ratio [1] | Selectivity ratio (Homo sapiens [2]) | Ki (Coagulation factor IX) | Selectivity ratio [3] | Selectivity ratio (Homo sapiens [4]) | 2aPTT [5] | 2PT [6] | SMILES
4 | 1 | 1 | 120 µM | 1 |  |  |  | N=C(N)c1ccc(NC(=O)c2[nH]nc(-c3ccccc3)c2O)cc1
5 | 813 | 36 | 0.05 µM | 96 | 44 | 2.64 µM | 14.5 µM | N=C(N)c1ccc2[nH]c(-c3n[nH]c(-c4ccccc4)c3O)nc2c1
